According to patent publication US20260232603A1, “A METHOD OF PREPARING AN AQUEOUS DISPERSION OF NANOPARTICLES” (IQ MEDICAL GMBH, priority 2023, published 2026):
≈ marks a conversion by molar mass, not a printed value. Like-named read-outs stand apart in the source and are kept apart here.

Tests used:
[1] = Table 8, cited from earlier work; for pKa: first value where several are printed
[2] = cited from earlier work
[3] = Pharmacokinetics of tacrolimus encapsulated in E100, sublingual cross-over, rats (2022NCM003); type: in vivo, Sprague Dawley rats; conditions: 5 mg per kg
Protocol: The pharmacokinetic profile of three different nanoparticular formulations of Tacrolimus after sublingual administration in five naïve male Sprague Dawley rats with 14 days wash-out interval was evaluated. To eliminate the inter-individual variability, the same animals were administered in an intra-individual three-way cross-over after washout period. The animals were housed in a separate temperature-controlled room (20-24° C.) and maintained in a 12 h light/12 h dark cycle. Food and water were available ad libitum throughout the duration of the study.
Formulations were freshly prepared on the day of application using the procedure described herein and administered freshly after arrival.
Dose (and applied volume of the nanosuspension) was adjusted individually to the body weight of the animal.
Test item formulations were administered sublingual to 5 animals with […] wash-out intervals at a dose of 5 mg per kg body weight. Application procedure and blood sampling was as described before.
Tacrolimus whole blood concentrations were analysed by LC-MS/MS and Cmax, tmax, and AUC were calculated.
Preparation of working solutions for calibration standards and quality controls Individual stock solutions were used for preparation of calibration standards and quality control samples (QCs).
All samples were kept on ice until the addition of the precipitation reagent. […]

[4] = Saturation solubility of sirolimus in selected solvents; type: physicochemical; conditions: thermodynamic from solid, room temperature, HPLC of supernatant
Protocol: One task is the production of a highly concentrated dispersion. The prerequisite for this is the use of a solvent for the production of the dispersion in which the active substance has a high solubility. […] Crystalline active ingredient was added to a defined amount of solvent at room temperature while stirring until an insoluble sediment was formed.

[5] = Pharmacokinetics of two sirolimus E100 nanoformulations, sublingual cross-over, rats (2022NCM002); type: in vivo; conditions: two nanoparticular formulations (FLM04_025, FLM02_b230)
Protocol: To eliminate the inter-individual variability, the same animals were administered in an intra-individual two-way cross-over after an appropriate washout period.
Two different approaches were followed in that a surfactant was included either during precipitation (FLM04_025) or after precipitation (FLM02_b230) as shown in FIG. 32.
Formulations were freshly prepared on the day of application using the procedure as described herein.
Test item formulations were administered sublingual to animals with 7 days wash-out intervals at a […] per kg body weight. Application procedure, blood sampling and their as quantification was as described before.

[6] = Pharmacokinetics of sirolimus encapsulated in E100, sublingual, rats (2022NCM001); type: in vivo, Sprague Dawley rats; conditions: 5 mg per kg
Protocol: Naïve, adult male Sprague Dawley rats of around 300 g body weight were housed in a separate temperature-controlled room (20-24° C.) and maintained in a 12 h light/12 h dark cycle. Food and water were available ad libitum throughout the duration of the study.
Formulation was freshly prepared on the day of application. It was administered sublingually to each animal at a dose of 5 mg per kg body weight.
For sublingual administration, rats were shortly anaesthetized with isoflurane. Prior to application, the sublingual area was blotted dry with cotton swabs. The appropriate volume of the formulation was applied under the tongue with a pipette. The animals were kept in a sitting position for 5 minutes. After 5 minutes the area under the tongue was blotted dry again to avoid oral administration of the remaining suspension. Then the animals were placed into the cage until recovery.
Blood samples were collected by puncture of the lateral tail vein at the following time points: predose, 15 min, 30 min, 1 h, 2 h, 4 h, 8 h and 24 h post dose. At each of the designated time points 20 μl blood was collected from the tail vein into K3-EDTA capillaries (Minivette POCT, […]). The blood samples were transferred into polypropylene tubes and frozen on dry ice within 1-2 min. of sampling and stored at −20° C. until LC-MS analysis. […]

[7] = nanoparticular dispersion based on Eudragit E100, rats

For CCCCCCCCCCCCCCCCCC(=O)O [Stearic Acid], which pKa [1] is on record?
Its pKa is 4.95.

With CCC(C)n1ncn(-c2ccc(N3CCN(c4ccc(OCC5COC(Cn6cncn6)(c6ccc(Cl)cc6Cl)O5)cc4)CC3)cc2)c1=O (stereo not drawn) [Itraconazole] as the compound, how does the “Log P” value [2] read?
Its value is 5.66.

And the Water solubility [2]?
Its Water solubility is 0.0096 mg/mL.

For CCCCCCCC/C=C\CCCCCCCC(=O)O [Oleic Acid], which Water solubility [1] is on record?
The Water solubility was 0.0001 mg/mL.

With O=C(O)CC(O)C(=O)O (stereo not drawn) [Malic acid] as the compound, how does the Water solubility [1] read?
The Water solubility was 218 mg/mL.

And the pKa [1]?
The pKa was 3.2.

With CCCCCCCC(=O)O [Octanoic Acid] as the compound, how does the pKa [1] read?
The pKa was 5.19.

Which Water solubility [1] does the source give for CCCCC(=O)O [Valeric acid] here?
The Water solubility was 40 mg/mL.

What about the pKa [1] of the same compound?
Its pKa is 5.01.

Which “Log P” value [2] does the source give for C=CC[C@@H]1/C=C(\C)C[C@H](C)C[C@H](OC)[C@H]2O[C@@](O)(C(=O)C(=O)N3CCCC[C@H]3C(=O)O[C@H](/C(C)=C/[C@@H]3CC[C@@H](O)[C@H](OC)C3)[C@H](C)[C@@H](O)CC1=O)[C@H](C)C[C@@H]2OC [Tacrolimus] here?
Its value is 4.5.

And the “detection in blood after sublingual administration” value [3, 7]?
The value was “detected in the blood of all rats”.

What about the “time of maximum concentration (t_max)” value ([3]; nanoparticular dispersion based on Eudragit E100, whole blood, rats) of the same compound?
The value was 30 min.

What does the source list for CO[C@H]1C[C@@H]2CC[C@@H](C)[C@@](O)(O2)C(=O)C(=O)N2CCCC[C@H]2C(=O)O[C@H]([C@H](C)C[C@@H]2CC[C@@H](O)[C@H](OC)C2)CC(=O)[C@H](C)/C=C(\C)[C@@H](O)[C@@H](OC)C(=O)[C@H](C)C[C@H](C)/C=C/C=C/C=C/1C [sirolimus]?
solubility ([4]; acetone, organic solvent or mixture, saturation solubility in Acetone (polar aprotic)): ≥ 200 mg/mL; solubility ([4]; ethanol, organic solvent or mixture, saturation solubility in Ethanol (polar protic)): 179 mg/mL (≈ 196 mM); solubility ([4]; iso-propanol, organic solvent or mixture, saturation solubility in iso-Propanol (polar protic)): 25 mg/mL (≈ 27.3 mM); solubility ([4]; methanol, organic solvent or mixture, saturation solubility in Methanol (polar protic)): 246 mg/mL (≈ 269 mM); solubility ([4]; water, saturation solubility in Water (polar protic)): ~0.001 mg/mL (≈ 0.00109 mM); detection in blood after sublingual administration [5]: detected in the blood of all rats; time of maximum concentration (t_max) ([6]; 5 min application, nanoparticular dispersion based on Eudragit E100, blood, rats): 30 min; detection in blood after sublingual administration [6, 7]: detected in the blood of all rats; Log P [2]: 4.56
